Test results published in patent US4160643A, “Water soluble cationic azo dyestuffs containing a cyclammonium group” (Imperial Chemical Industries Limited, priority 1976, dated 1979).
Read-outs that look alike come from different tables or passages of the source. Each block holds one compound with its values, some of them ahead of it.

Experiments:
[1] = Solubility of dyestuffs in water; assay type: physicochemical
[2] = Behaviour in forming a liquid in a water/acetic acid/sulpholane solvent system; assay type: physicochemical; settings: Table 1; ambient temperature
[3] = Table 4, dyestuff of Example 19 structure, acid sulphate, 25° C., read-out: Solubility in water at 25° C.
[4] = Table 4, dyestuff of Example 19 structure, acid sulphate, 50° C., read-out: Solubility in water at 50° C.
[5] = Table 1, 25° C., read-out: Solubility in water at 25° C.
[6] = Table 3, dyestuff of Example 13 structure, chloride, 25° C., read-out: Solubility in water at 25° C.
[7] = Table 3, dyestuff of Example 13 structure, chloride, 50° C., read-out: Solubility in water at 50° C.

SMILES: Cc1cc[n+](CCNc2ccc(N=Nc3ccc([N+](=O)[O-])cc3)cc2Cl)cc1 [γ-picoline (Table 1)]
solubility [1, 5]: 75000 to 100000 µg/mL | Solubility of 1 part of dye in 1 part water 1.5 part acetic acid 1 part sulpholane [2]: Not a solution at ambient

SMILES: Cc1cccc[n+]1CCNc1ccc(N=Nc2ccc([N+](=O)[O-])cc2)cc1Cl [α-picoline]
solubility [1, 5]: < 2500 µg/mL

SMILES: O=[N+]([O-])c1ccc(N=Nc2ccc(NCC[n+]3ccccc3)c(Cl)c2)cc1 [Pyridine (Table 1)]
solubility [1, 5]: < 2500 µg/mL | Solubility of 1 part of dye in 1 part water 1.5 part acetic acid 1 part sulpholane [2]: Not a solution at ambient

Other lines, results leading:

solubility [1, 3]: 1000 µg/mL | solubility [1, 4]: 5000 µg/mL
SMILES: CCN(CC[n+]1ccc(C)cc1)c1ccc(N=Nc2c(Cl)cc([N+](=O)[O-])cc2Cl)cc1 [γ-picoline (Table 4)]

solubility [1, 6]: 10000 µg/mL | solubility [1, 7]: 300000 µg/mL
SMILES: CCN(CC[n+]1ccccc1)c1ccc(N=Nc2ccc([N+](=O)[O-])cc2Cl)cc1 [Pyridine (Table 3)]

solubility [1, 6]: 10000 µg/mL | solubility [1, 7]: 240000 µg/mL
SMILES: CCN(CC[n+]1ccc(C)cc1)c1ccc(N=Nc2ccc([N+](=O)[O-])cc2Cl)cc1 [γ-picoline (Table 3)]

solubility [1, 3]: 10000 µg/mL | solubility [1, 4]: 20000 µg/mL
SMILES: CCN(CC[n+]1ccccc1)c1ccc(N=Nc2c(Cl)cc([N+](=O)[O-])cc2Cl)cc1 [Pyridine (Table 4)]
